Assay results from patent US12428415B2, “Matriptase 2 inhibitors and uses thereof” (Disc Medicine, Inc., priority 2018, dated 2025).

target: T1, Human Recombinant Matriptase 2 (Homo sapiens, UniProt Q8IU80); experiment: Matriptase 2 fluorescence based inhibition assay, Method B (50 mM TRIS pH 7.5, 150 mM NaCl, 0.01% gelatin); assay type: biochemical; conditions: 1 uM compound; Assay Used = B (Method B); read-out: Mar-2 % inhibition at 1 uM
T1 construct: purchased Enzo Life Sciences (an in-house preparation was also used) ALX-201-752-1
T1 sequence (Q8IU80 1-811): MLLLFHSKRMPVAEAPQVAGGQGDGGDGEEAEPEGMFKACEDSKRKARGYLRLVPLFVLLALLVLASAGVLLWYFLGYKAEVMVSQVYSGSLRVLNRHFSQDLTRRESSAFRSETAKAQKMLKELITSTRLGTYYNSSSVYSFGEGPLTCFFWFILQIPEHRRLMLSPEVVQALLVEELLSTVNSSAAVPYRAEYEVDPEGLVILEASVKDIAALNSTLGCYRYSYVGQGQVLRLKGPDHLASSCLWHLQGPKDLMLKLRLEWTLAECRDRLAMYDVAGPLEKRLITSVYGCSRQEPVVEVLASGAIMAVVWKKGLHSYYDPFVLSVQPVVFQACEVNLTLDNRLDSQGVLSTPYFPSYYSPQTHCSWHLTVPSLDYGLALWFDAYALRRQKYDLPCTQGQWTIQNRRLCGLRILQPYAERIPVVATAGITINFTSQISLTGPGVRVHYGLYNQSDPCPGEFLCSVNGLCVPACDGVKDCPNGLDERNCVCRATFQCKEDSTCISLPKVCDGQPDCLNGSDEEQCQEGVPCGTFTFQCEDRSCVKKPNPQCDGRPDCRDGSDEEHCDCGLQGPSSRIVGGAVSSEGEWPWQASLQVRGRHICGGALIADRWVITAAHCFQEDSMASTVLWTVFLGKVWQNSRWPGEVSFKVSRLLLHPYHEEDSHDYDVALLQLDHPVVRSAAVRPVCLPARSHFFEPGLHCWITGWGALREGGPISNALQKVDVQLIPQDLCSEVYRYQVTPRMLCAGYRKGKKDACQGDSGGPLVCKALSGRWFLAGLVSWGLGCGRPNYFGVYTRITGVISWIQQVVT
How it was run: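 Fluorogenic substrate Boc-Gln-Ala-Arg-7-amido-4-methylcoumarin (100 μM) cleavage read at Ex 360/Em 480 nm 60 min after addition, following 30 min enzyme–compound preincubation at 25° C. Enzyme was 7 nM commercial or 15 nM in-house; DMSO 1%. IC50s fitted by non-linear sigmoidal regression.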

| Compound | inhibition at 1 µM [%] |
| --- | --- |
| CC(C)(C)OC(=O)N[C@H]1CC[C@H](NC(=O)c2cc3ccc(C(=N)N)cc3n2Cc2cccc3ccccc23)CC1 [Compound I-787] | 0 to 25 |
| N=C(N)c1ccc2cc(-c3ncco3)n(Cc3cccc4ccccc34)c2c1 [Compound I-748, 1-(naphthalen-1-ylmethyl)-2-(oxazol-2-yl)-1H-indole-6-carboximidamide] | 75 to 100 |
| N=C(N)c1ccc2cc(C(=O)NCCO)n(Cc3cccc4ccccc34)c2c1 [Compound I-600] | 75 to 100 |
| N=C(N)c1ccc2cc(C(=O)N[C@H]3CC[C@H](N)CC3)n(Cc3cc(Sc4ccccc4)cc4ccccc34)c2c1 [Compound I-725] | 75 to 100 |
| N=C(N)c1ccc2cc(C(=O)N[C@H]3CC[C@H](N)CC3)n(Cc3cc(Oc4ccccc4)cc4ccccc34)c2n1 [Compound I-721] | 75 to 100 |
| CC(C)Oc1ccc2c(Cn3c(C(=O)O)cc4ccc(C(=N)N)cc43)cccc2c1 [Compound I-793] | 50 to 75 |
| N/C(=N/O)c1ccc2cc(C(=O)O)n(Cc3cc(Oc4ncccn4)cc4ccccc34)c2c1 [Compound I-643, (Z)-6-(N′-hydroxycarbamimidoyl)-1-((3-(pyrimidin-2-yloxy)naphthalen-1-yl)methyl)-1H-indole-2-carboxylic Acid] | 0 to 25 |
| N=C(N)c1cc2c(cn1)cc(C(=O)O)n2Cc1cccc2ccccc12 [Compound I-706] | 25 to 50 |
| N=C(N)c1ccc2cc(C(=O)O)n(Cc3cc(Oc4ccccc4)cc4ccccc34)c2c1 [Compound I-746] | 50 to 75 |
| N=C(N)c1ccc2cc(CC(=O)O)n(Cc3cccc4ccccc34)c2c1 [Compound I-716, 2-(6-carbamimidoyl-1-(naphthalen-1-ylmethyl)-1H-indol-2-yl)acetic Acid] | 75 to 100 |
| CCOC(=O)c1cc2ccc(C(=N)NC(=O)OCC(C)C)cc2n1Cc1cccc2ccccc12 [Compound I-719, Ethyl 6-(N-(isobutoxycarbonyl)carbamimidoyl)-1-(naphthalen-1-ylmethyl)-1H-indole-2-carboxylate] | 0 to 25 |
| CCn1c(C(=O)O)c(Cc2cccc3ccccc23)c2cc(C(=N)N)ccc21 [Compound I-685] | 50 to 75 |
| N=C(N)c1ccc2cc(C(=O)O)n(Cc3csc4ccccc34)c2n1 [Compound I-724] | 50 to 75 |
| CCn1c(C(=O)N[C@H]2CC[C@H](N)CC2)c(Cc2cccc3ccccc23)c2cc(C(=N)NN)ccc21 [Compound I-664] | 0 to 25 |
| CC(=O)N[C@H]1CC[C@H](NC(=O)c2cc3ccc(C(=N)N)cc3n2Cc2cccc3ccccc23)CC1 [Compound I-754] | 50 to 75 |
| NC(=NO)c1ccc2cc(C(=O)O)n(Cc3cc(S(=O)(=O)c4ccccc4)cc4ccccc34)c2c1 [Compound I-659] | 0 to 25 |
| N=C(N)c1ccc2cc(C(=O)N[C@H]3CC[C@H](N)CC3)n(Cc3cc(N4CCOCC4=O)cc4ccccc34)c2c1 [Compound I-702] | 25 to 50 |
| N=C(N)Nc1ccc2cc(C(=O)N[C@H]3CC[C@H](N)CC3)n(Cc3cccc4ccccc34)c2c1 [Compound I-620, N-((1r,4r)-4-aminocyclohexyl)-6-guanidino-1-(naphthalen-1-ylmethyl)-1H-indole-2-carboxamide] | 0 to 25 |
| N=C(N)c1ccc2cc(C(=O)N[C@H]3CC[C@H](N)CC3)n(C[C@H]3CCc4ccccc43)c2c1 (racemic) [Compound I-616] | 25 to 50 |
| COC(=O)c1cc2ccc(C(=N)N)cc2n1Cc1csc2ccccc12 [Compound I-708] | 25 to 50 |
| N=C(N)c1ccc2cc(C(=O)N[C@H]3CC[C@H](N)CC3)n(Cc3cc(C(N)=O)cc4ccccc34)c2c1 [Compound I-796, N-((1r, 4r)-4-aminocyclohexyl)-6-carbamimidoyl-1-((3-carbamoylnaphthalen-1-yl)methyl)-1H-indole-2-carboxamide] | 50 to 75 |

same assay, conditions: 1 uM compound; Assay Used = B; read-out: Mar-2 % inhibition at 1 uM

| Compound | inhibition at 1 µM [%] |
| --- | --- |
| N=C(N)c1ccc2cc(C(=O)N[C@H]3CC[C@H](N)CC3)n(Cc3cccc4cnccc34)c2c1 [Compound I-504] | 50 to 75 |
| N=C(N)c1ccc2c(F)c(C(=O)O)n(Cc3cccc4ccccc34)c2c1 [Compound I-577, 6-carbamimidoyl-3-fluoro-1-(naphthalen-1-ylmethyl)-1H-indole-2-carboxylic Acid] | 50 to 75 |
| N=C(N)c1ccc2cc(C(=O)N[C@H]3CC[C@H](N)CC3)n(CCS(=O)(=O)c3cccc4ccccc34)c2c1 [Compound I-501] | 0 to 25 |
| CC(C)(C)OC(=O)NC(=N)c1ccc2cc(C(=O)NCc3ccc(CO)cc3)n(Cc3cccc4ccccc34)c2c1 [Compound I-421] | 0 to 25 |
| N=C(N)c1ccc2cc(C(=O)NCC3CCNCC3)n(Cc3cccc4ccccc34)c2c1 [Compound I-497, 6-carbamimidoyl-1-(naphthalen-1-ylmethyl)-N-(piperidin-4-ylmethyl)-1H-indole-2-carboxamide] | 75 to 100 |
| CC(C)(C)OC(=O)N[C@H]1CC[C@H](c2nnc(-c3cc4ccc(C(=N)N)cc4n3Cc3cccc4ccccc34)o2)CC1 [Compound I-524, tert-butyl ((1r,4r)-4-(5-(6-carbamimidoyl-1-(naphthalen-1-ylmethyl)-1H-indol-2-yl)-1,3,4-oxadiazol-2-yl)cyclohexyl)carbamate] | 25 to 50 |
| N=C(N)c1ccc2cc(C(=O)NCCN3CCCCC3)n(Cc3cccc4ccccc34)c2c1 [Compound I-481] | 75 to 100 |
| COCc1c(C(=O)N[C@H]2CC[C@H](N)CC2)n(Cc2cccc3ccccc23)c2cc(C(=N)N)ccc12 [Compound I-517, N-((1r,4r)-4-aminocyclohexyl)-6-carbamimidoyl-3-(methoxymethyl)-1-(naphthalen-1-ylmethyl)-1H-indole-2-carboxamide] | 50 to 75 |
| N=C(N)c1ccc2cc(C(=O)O)n(Cc3cccc4ccccc34)c2c1 [Compound I-458, 6-carbamimidoyl-1-(naphthalen-1-ylmethyl)-1H-indole-2-carboxylic Acid] | 75 to 100 |
| N=C(N)c1ccc2cc(C(=O)Nc3ccc(NC(=O)c4ccccn4)cc3)n(Cc3cccc4ccccc34)c2c1 [Compound I-430] | 50 to 75 |
| CN1CCC(NC(=O)c2cc3ccc(C(=N)N)cc3n2Cc2cc(Oc3ncccn3)cc3ccccc23)CC1 [Compound I-594] | 75 to 100 |
| COc1ccnc(Oc2cc(Cn3c(C(=O)O)cc4ccc(C(=N)N)cc43)c3ccccc3c2)n1 [Compound I-574] | 25 to 50 |
| COC(=O)NCCOC(=O)c1cc2ccc(C(=N)N)cc2n1Cc1cc(Oc2ccccc2)cc2ccccc12 [Compound I-555] | 25 to 50 |
| CN1CCC(NC(=O)c2cc3ccc(CN)cc3n2Cc2cccc3ccccc23)CC1 [Compound I-535] | 25 to 50 |
| N=C(N)c1ccc2cc(C(=O)N(CCO)C3CCC(N)CC3)n(Cc3cccc4ccccc34)c2c1 (centres unmarked) [Compound I-453] | 50 to 75 |
| CC(C)(C)OC(=O)N[C@H]1CC[C@H](NC(=O)c2cc3ccc(C(=N)N)cc3n2-c2ccc3ccccc3c2)CC1 [Compound I-416] | 0 to 25 |
| N=C(N)c1ccc2cc(C(=O)N[C@H]3CC[C@H](N)CC3)n(Cc3ccccc3-c3ccccc3)c2c1 [Compound I-510] | 0 to 25 |
| CCOC(=O)c1cc2ccc(/C(N)=N/C#N)cc2n1Cc1cc(Oc2ncccn2)cc2ccccc12 [Compound I-558, ethyl (Z)-6-(N′-cyanocarbamimidoyl)-1-((3-(pyrimidin-2-yloxy)naphthalen-1-yl)methyl)-1H-indole-2-carboxylate] | 0 to 25 |

same assay, conditions: at 1 uM; Assay Used = B; read-out: Mar-2 % inhibition at 1 uM

| Compound | inhibition at 1 µM [%] |
| --- | --- |
| N=C(N)c1ccc(CNC(=O)c2cc3ccc(C(=N)N)cc3n2Cc2cccc3ccccc23)cc1 [Compound I-395] | 75 to 100 |

same assay, conditions: compound at 1 uM; Assay Used: B; read-out: Mar-2 % inhibition at 1 uM

| Compound | inhibition at 1 µM [%] |
| --- | --- |
| N=C(N)c1ccc2cc(C(=O)N[C@H]3CC[C@H](N)CC3)n(Cc3cc(CO)cc4ccccc34)c2c1 [Compound I-800, N-((1r,4r)-4-aminocyclohexyl)-6-carbamimidoyl-1-((3-(hydroxymethyl)naphthalen-1-yl)methyl)-1H-indole-2-carboxamide] | 25 to 50 |
| N=C(N)c1ccc2cc(-c3nnn[nH]3)n(Cc3cccc4ccccc34)c2c1 [Compound I-803, 1-(naphthalen-1-ylmethyl)-2-(1H-tetrazol-5-yl)-1H-indole-6-carboximidamide] | 75 to 100 |
| N=C(N)c1ccc2cc(C(=O)N[C@H]3CC[C@H](N)CC3)n(Cc3cc(C(=O)O)cc4ccccc34)c2c1 [Compound I-806] | 50 to 75 |

same assay, conditions: read-out: Mar-2 % inhibition at 1 uM

| Compound | inhibition at 1 µM [%] |
| --- | --- |
| N=C(NC(=O)Oc1ccccc1)c1ccc2cc(C(=O)O)n(Cc3cc(Oc4ncccn4)cc4ccccc34)c2c1 [Compound I-551] | 0 to 25 |
